Experimental data taken from patent publication US20200407370A1, “PEPTIDYLARGININE DEIMINASE INHIBITOR AND USE THEREOF” (Nanjing Transthera Biosciences Co., Ltd., priority 2018, published 2020).
Where two headings read alike, the source gives them in different places.

How the values were obtained:
[1] = molecular target: T1, Peptidylarginine deiminase 4 (PAD4) (Homo sapiens, UniProt Q9UM07); test: Assay of enzyme-inhibiting activity (PAD4, FAM-AcH4(1-5) peptide, Caliper detection); format: biochemical; conditions: 10 nM PAD4, 5 μM peptide, 0.1 mM Ca2+, pH 8.0
T1 construct: purchased Cayman 10500
Experimental: Experimental Example 1: Assay of Enzyme-Inhibiting Activity of Compound
Sample: The compound disclosed herein prepared according to exemplary methods.
Peptidylarginine deiminase 4 (PAD4): Cayman, Cat. No. 10500, Lot. No. 0519694;
Carboxyfluorescein-labeled peptide (Peptide FAM-AcH4 (1-5)): GL Biochem, Cat. No. 0200046, Lot. No. P161110-TL545976;
An appropriate amount of the compound to be assayed was dissolved in DMSO to 10 mM. An appropriate amount of 10 mM mother liquor of the compound to be assayed was diluted to 1.5 mM with DMSO, and the solution was then serially diluted 3-fold with DMSO to give 50× concentrations of gradient compound solutions. Finally, 10-fold dilution was carried out with reaction buffer (an aqueous solution of 100 mM HEPES (2-[4-(2-hydroxyethyl)piperazin-1-yl]ethanesulfonic acid) containing 0.01% v/v Triton, pH 8.0) to give 5× concentrations of gradient compound solutions (150 μM, 50 μM, 16.667 μM, 5.556 μM, 1.852 μM, 0.617 μM, 0.206 μM, 0.069 μM, 0.023 μM, and 0.008 μM).
1) Reaction buffer: aqueous solution of 100 mM HEPES (2-[4-(2-hydroxyethyl)piperazin-1-yl]ethanesulfonic acid) containing 0.01% v/v Triton, pH 8.0;
2) Stop solution: aqueous solution of 100 mM HEPES (2-[4-(2-hydroxyethyl)piperazin-1-yl]ethanesulfonic acid) containing 0.015% w/v Brij-35, 0.2% v/v Coating Reagent (coating solution) #3 (PE, part no. 760050) and 50 mM EDTA, pH 8.0;
3) 2.5× enzyme solution: An appropriate amount of PAD4 was diluted to 2.5× (final concentration: 10 nM) with reaction buffer;
4) 2.5× polypeptide solution: An appropriate amount of carboxyfluorescein -labeled peptide (FAM-AcH4(1-5) peptide) and CaCl2) solution was diluted to 2.5× (the final concentration of polypeptide: 5 μM, the final concentration of Ca^2+: 0.1 mM) with reaction buffer.
5 μL of 5× compound solutions or solvents with different concentrations were added to a 384-well plate, 10 μL of 2.5× enzyme solution was then added, and the plate was incubated at room temperature for 10 min. 10 μL of 2.5× polypeptide solution was then added to each well, and the plate was incubated at 28° C. for a certain period of time. 25 μL of stop solution was added to stop reaction. Caliper was used for detection. The inhibition rate was calculated according to the following formula:
Inhibition percentage=(max−transformation)/(max−min)*100.
“max” denotes DMSO control; and “min” denotes low control.

[2] = Pharmacokinetics (PK) of the compound in rats; format: in vivo; conditions: rat, plasma, SD rats; for bioavailability / AUC(0-t) / clearance / Vd / half-life: n = 3; for bioavailability: read-out: F (absolute bioavailability); for clearance: read-out: Cl_obs iv (clearance) (converted); for Vd: read-out: Vz_obs iv (apparent volume of distribution); for Tmax: n = 3, median, read-out: Tmax po (time to maximum plasma concentration)
Experimental: Experimental Example 3: Pharmacokinetics (PK) of the Compound in Rats
The test compound was dissolved in a mixture of 5% v/v DMSO+20% v/v (30% v/v solutol (polyethylene glycol-15 hydroxystearate purchased from BASF, batch no. 84773247G0))+75% v/v brine to prepare a solution, which was then administered to SD rats by oral gavage at a dose of 5.0 mg/kg. Blood samples were collected at 15 min, 30 min, 1 h, 2 h, 4 h, 6 h, 8 h and 24 h.
The test compound was dissolved in a mixture of 5% v/v DMSO+20% v/v (30% v/v solutol)+75% v/v brine to prepare a solution, which was administered to SD rats by intravenous bolus at a dose of 1 mg/kg. Blood samples were collected at 5 min, 15 min, 30 min, 1 h, 2 h, 4 h, 6 h, 8 h and 24 h.
The animals were fixed, with tails warmed in a water bath 10 min before each sampling time point. About 100 μL of blood was collected via the tail vein, and the blood samples were collected in anticoagulation tubes containing EDTA-K2. The blood samples were centrifuged at 8,000 rpm for 6 min at 4° C. to give plasma samples within 30 min after collection. The plasma samples were stored in a refrigerator at −80° C. before test.
The sample was taken out from the −80° C. refrigerator, and vortexed for 5 min after naturally thawed at room temperature. 20 μL of plasma sample was pipetted into a 1.5 mL centrifuge tube, and 200 μL of 100 ng/mL internal standard working solution (a solution of tolbutamide in methanol) was added. The resulting mixture was mixed, vortexed for 5 min, and then centrifuged at 12,000 rpm for 5 min. 50 μL of the supernatant was pipetted into a 96-well plate with 150 μL of water per well, and the plate was vortexed for 5 min before LC-MS/MS analysis.
The concentration was calculated by Analyst 1.6.3 from AB Sciex. Parameters such as mean, standard deviation and coefficient of variation (excluding those output directly by Analyst 1.6.3) were calculated by Microsoft Excel. PK parameters were calculated by Pharsight Phoenix 6.1 software NCA (Tmax was in median).

[3] = IV 1 mg/kg, read-out: AUClast iv (area under concentration-time curve 0-24 h)
[4] = IV 1 mg/kg, read-out: tz1/2 iv (terminal half-life) (converted)
[5] = PO 5 mg/kg, read-out: AUClast po (area under concentration-time curve 0-24 h)
[6] = PO 5 mg/kg, read-out: tz1/2 po (terminal half-life) (converted)

T1 sequence (Q9UM07 whole entry): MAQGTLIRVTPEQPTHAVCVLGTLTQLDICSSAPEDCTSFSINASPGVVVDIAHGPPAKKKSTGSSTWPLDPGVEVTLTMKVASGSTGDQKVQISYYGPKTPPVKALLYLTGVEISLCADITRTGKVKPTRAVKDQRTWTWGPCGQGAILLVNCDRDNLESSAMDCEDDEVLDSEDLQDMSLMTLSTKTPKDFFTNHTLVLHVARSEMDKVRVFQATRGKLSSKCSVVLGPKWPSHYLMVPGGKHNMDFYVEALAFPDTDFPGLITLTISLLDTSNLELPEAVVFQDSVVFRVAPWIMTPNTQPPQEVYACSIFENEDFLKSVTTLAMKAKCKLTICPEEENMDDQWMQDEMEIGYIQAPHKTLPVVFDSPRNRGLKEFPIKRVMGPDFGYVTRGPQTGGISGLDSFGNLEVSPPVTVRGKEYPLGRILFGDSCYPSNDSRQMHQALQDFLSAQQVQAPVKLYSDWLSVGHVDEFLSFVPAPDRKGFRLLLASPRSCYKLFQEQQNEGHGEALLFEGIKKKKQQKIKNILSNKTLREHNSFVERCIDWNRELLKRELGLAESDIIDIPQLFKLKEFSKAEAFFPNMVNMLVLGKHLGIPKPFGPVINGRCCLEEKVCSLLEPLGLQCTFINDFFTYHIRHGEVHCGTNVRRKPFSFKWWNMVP

SMILES | IC50 [1] [nM] | bioavailability ([2]; IV 1 mg/kg, PO 5 mg/kg) [%] | AUC(0-t) [2, 3] [ng·h/mL] | clearance ([2]; IV 1 mg/kg) [mL/min/kg] | Vd ([2]; IV 1 mg/kg) [L/kg] | half-life [2, 4] [h] | Tmax ([2]; PO 5 mg/kg) [h] | AUC(0-t) [2, 5] [ng·h/mL] | half-life [2, 6] [h]
CCn1c(-c2nc3cc(C(=O)N4CCC[C@@H](N)C4)cc(OC)c3n2C)cc2ccsc21 [Compound 3, (R)-(3-aminopiperidin-1-yl)(2-(6-ethyl-6H-thieno[2,3-b]pyrrol-5-yl)-7-methoxy-1-methyl-1H-benzo[d]imidazol-5-yl)methanone] | 200 | 15.6 | 1200 | 13.2 | 11.2 | 9.97 | 6 | 934 | –
CCn1c(-c2nc3cc(C(=O)N4CCC[C@@H](N)C4)cc(OC)c3n2C)cc2cc(C)sc21 [Compound 9, (R)-(3-aminopiperidin-1-yl)(2-(6-ethyl-2-methyl-6H-thieno[2,3-b]pyrrol-5-yl)-7-methoxy-1-methyl-1H-benzo[d]imidazol-5-yl)methanone] | 110 | 41.8 | 303 | 43.7 | 22 | 5.96 | 6 | 633 | 6.33
COc1cc(C(=O)N2CCC[C@@H](N)C2)cc2nc(-c3cc4ccsc4n3CC(C)C)n(C)c12 [Compound 20, (R)-(3-aminopiperidin-1-yl)(2-(6-isobutyl-6H-thieno[2,3-b]pyrrol-5-yl)-7-methoxy-1-methyl-1H-benzo[d]imidazol-5-yl)methanone] | 58 | 71.2 | 3160 | 5 | 2.86 | 6.94 | 8 | 11200 | 13.2
COc1cc(C(=O)N2CCC[C@@H](N)C2)cc2nc(-c3cc4ccsc4n3CC(F)(F)F)n(C)c12 [Compound 21, (R)-(3-aminopiperidin-1-yl)(7-methoxy-1-methyl-2-(6-(2,2,2-trifluoroethyl)-6H-thieno[2,3-b]pyrrol-5-yl)-1H-benzo[d]imidazol-5-yl)methanone] | 55 | 33.3 | 772 | 15.3 | 8.73 | 6.93 | 8 | 1290 | 4.7

These reach a lower IC50 [1]. Values come first.

IC50 [1] [nM] | bioavailability ([2]; IV 1 mg/kg, PO 5 mg/kg) [%] | AUC(0-t) [2, 3] [ng·h/mL] | clearance ([2]; IV 1 mg/kg) [mL/min/kg] | Vd ([2]; IV 1 mg/kg) [L/kg] | half-life [2, 4] [h] | Tmax ([2]; PO 5 mg/kg) [h] | AUC(0-t) [2, 5] [ng·h/mL] | half-life [2, 6] [h] | SMILES
40 | 35 | 7680 | 1.67 | 1.76 | 14.6 | 6 | 13500 | 12 | COc1cc(C(=O)N2CCC[C@@H](N)C2)cc2nc(-c3cc4ccsc4n3CC3CCC3)n(C)c12 [Compound 22, (R)-(3-aminopiperidin-1-yl)(2-(6-(cyclobutylmethyl)-6H-thieno[2,3-b]pyrrol-5-yl)-7-methoxy-1-methyl-1H-benzo[d]imidazol-5-yl)methanone]
36 | 46.6 | 1010 | 16.7 | 5.64 | 3.92 | 6 | 2360 | 3.96 | COc1cc(C(=O)N2CCC[C@@H](N)C2)cc2nc(-c3cc4ccsc4n3CC3CC3)n(C)c12 [Compound 18, (R)-(3-aminopiperidin-1-yl)(2-(6-(cyclopropylmethyl)-6H-thieno[2,3-b]pyrrol-5-yl)-7-methoxy-1-methyl-1H-benzo[d]imidazol-5-yl)methanone]
25 | 31.2 | 887 | 18 | 11.6 | 7.9 | 6 | 1380 | 7.52 | COc1cc(C(=O)N2CCC[C@@H](N)C2)cc2nc(-c3cc4cc(C)sc4n3CC3CC3)n(C)c12 [Compound 23, (R)-(3-aminopiperidin-1-yl)(2-(6-(cyclopropylmethyl)-2-methyl-6H-thieno[2,3-b]pyrrol-5-yl)-7-methoxy-1-methyl-1H-benzo[d]imidazol-5-yl)methanone]
